These results are taken from PMC11359332, “Characterization of Neonicotinoid Metabolites by Cytochrome P450-Mediated Metabolism in Poultry” (Toxics, 2024).

Structures are written as SMILES.

Data set [1] deals with quail liver microsomes (CYP). As to the kind of experiment: In vitro CYP metabolism of neonicotinoids, quail liver microsomes, metabolites quantified by LC/MS/MS. The class given is in vitro ADME, quail (Coturnix coturnix). Here is the method:
(§1) All experimental protocols and animal-handling procedures were performed following the guidelines for animal experiments and approved by the Animal Ethics Research Committee of the Faculty of Veterinary Medicine, […] University, Bangkok, Thailand (Approval number: […]-026). Liver samples of chickens (Gallus domesticus, n = 5), ducks (Anas platyrhynchos, n = 5), […] domesticus, n = 3), quails (Coturnix coturnix, n = 5), and rats (Rattus norvegicus, n = 3) were obtained from the previous study. The liver microsomal fractions used in this study were prepared by the method of Omura and Sato [28] with slight modifications. Briefly, liver sample was homogenized with 0.1 M potassium phosphate buffer (KPB, pH 7.4) and centrifuged at 9000× g at 4 °C for 20 min. The supernatant was collected and centrifuged twice at 105,000× g at 4 °C for 60 min. Microsomal pellets were homogenized with 0.1 M KPB and measured for protein concentrations using the BCA protein assay kit (Thermo Fisher Scientific, Rockford, IL, USA) before being frozen using liquid nitrogen, for storage at -80 °C until analysis. […] The accuracy of the current analytical method was validated and determined using matrix-spiked neonicotinoid standards at two concentrations, 1 ng/mL and 10 ng/mL. The thirteen target compounds were detected with recovery rates ranging from 87 to 101% at 1 ng/mL, and 86 to 116% at 10 ng/mL. […]
A general note: Liver microsomes are vesicles of endoplasmic reticulum, rich in cytochrome P450 enzymes.

For data set [2], the system named is chicken liver microsomes (CYP). As to the kind of experiment: In vitro CYP metabolism of neonicotinoids, chicken liver microsomes, metabolites quantified by LC/MS/MS. It is filed as in vitro ADME, chicken (Gallus domesticus). Here is the method:
(§2) All experimental protocols and animal-handling procedures were performed following the guidelines for animal experiments and approved by the Animal Ethics Research Committee of the Faculty of Veterinary Medicine, […] University, Bangkok, Thailand (Approval number: […]-026). Liver samples of chickens (Gallus domesticus, n = 5), ducks (Anas platyrhynchos, n = 5), […] domesticus, n = 3), quails (Coturnix coturnix, n = 5), and rats (Rattus norvegicus, n = 3) were obtained from the previous study. The liver microsomal fractions used in this study were prepared by the method of Omura and Sato [28] with slight modifications. Briefly, liver sample was homogenized with 0.1 M potassium phosphate buffer (KPB, pH 7.4) and centrifuged at 9000× g at 4 °C for 20 min. The supernatant was collected and centrifuged twice at 105,000× g at 4 °C for 60 min. Microsomal pellets were homogenized with 0.1 M KPB and measured for protein concentrations using the BCA protein assay kit (Thermo Fisher Scientific, Rockford, IL, USA) before being frozen using liquid nitrogen, for storage at -80 °C until analysis. The assay of neonicotinoid metabolism using liver microsome was modified from that of a previous study. Since we had insufficient liver samples to produce the microsomes of geese and quails, the substrates of imidacloprid and clothianidin were not applied for those microsome reactions. However, microsomes of chicken, ducks, and rats were used for all substrate reactions. […] Then, the reaction was initiated by adding a mixture of G6PDH (2 IU/mL) and β-NADPH (0.5 mM), and continuously incubating for 30 min. Then, 0.1% formic acid in acetonitrile was added to stop the reaction. After that, the reaction sample was placed on ice for 15 min before centrifugation at 12,000 g for 10 min. The supernatant (100 μL) was collected and then spiked with neonicotinoid internal standard mixtures (50 μL), then evaporated using a centrifugal evaporator (CVE-200D with UT-2000, EYELA, Tokyo, Japan). The dried sample was re-dissolved with 20% methanol (v/v) and transferred into vials for chemical analysis. […] For all analyses, mobile phase A consisted of 0.1% formic acid + 10 mM ammonium acetate in distilled water and mobile phase B consisted of 0.1% formic acid + 10 mM ammonium acetate in 100% MeOH. The injection volume of 5 μL, the flow rate of 0.40 mL/min with gradient elution, and a column temperature of 45 °C were used for all experiments. The ion signals were acquired with multiple-reaction monitoring (MRM) in positive ionization mode. In the current study, the liver microsome was spiked with deuterium-labelled internal standards (ISs) of the target neonicotinoids before the extraction and purification processes. […] The calibration curves were created using 10-point calibration standards ranging from 0.05 to 20 ng/mL. […] The accuracy of the current analytical method was validated and determined using matrix-spiked neonicotinoid standards at two concentrations, 1 ng/mL and 10 ng/mL. The thirteen target compounds were detected with recovery rates ranging from 87 to 101% at 1 ng/mL, and 86 to 116% at 10 ng/mL. […] In the current study, all the assays were performed in duplicates and the negative controls (the reaction mixture without substrate) were prepared for each sample. […] Statistical analyses were conducted using the JMP […] software (SAS Institute, Carry, NC, USA). One-way ANOVA with post-hoc Tukey-Kramer multiple comparison test was used to compare the Vmax/Km ratio among species. All results were presented as the mean ± standard deviation (SD).

In data set [3] the test system is goose liver microsomes (CYP). As to the kind of experiment: In vitro CYP metabolism of neonicotinoids, goose liver microsomes, metabolites quantified by LC/MS/MS. The class given is in vitro ADME, goose (Anser domesticus). Here is the method:
as §1

In data set [4] the test system is duck liver microsomes (CYP). Put plainly: In vitro CYP metabolism of neonicotinoids, duck liver microsomes, metabolites quantified by LC/MS/MS. The class given is in vitro ADME, duck (Anas platyrhynchos). Here is the method: as §2
Data set [5] relates to rat liver microsomes (CYP). Put plainly: In vitro CYP metabolism of neonicotinoids, rat liver microsomes, metabolites quantified by LC/MS/MS. The class given is in vitro ADME. Here is the method:
as §2

The test system of data set [6] is liver microsomes from various species. Put plainly: Metabolite screening by LC/Q-TOF in reaction mixtures using liver microsomes from various species. It is filed as in vitro ADME, chicken, duck, goose, quail, rat. Here is the method:
The assay of neonicotinoid metabolism using liver microsome was modified from that of a previous study. Since we had insufficient liver samples to produce the microsomes of geese and quails, the substrates of imidacloprid and clothianidin were not applied for those microsome reactions. However, microsomes of chicken, ducks, and rats were used for all substrate reactions. […] Then, the reaction was initiated by adding a mixture of G6PDH (2 IU/mL) and β-NADPH (0.5 mM), and continuously incubating for 30 min. Then, 0.1% formic acid in acetonitrile was added to stop the reaction. After that, the reaction sample was placed on ice for 15 min before centrifugation at 12,000 g for 10 min. The supernatant (100 μL) was collected and then spiked with neonicotinoid internal standard mixtures (50 μL), then evaporated using a centrifugal evaporator (CVE-200D with UT-2000, EYELA, Tokyo, Japan). The dried sample was re-dissolved with 20% methanol (v/v) and transferred into vials for chemical analysis.
A liquid chromatograph quadrupole time-of-flight (6546 LC/Q-TOF; Agilent Technologies, Santa Clara, CA, USA) operated with a 1.8 μm Eclipse Plus C18 RRHD analytical column (2.1 × 150 mm; Agilent Technologies, CA, USA) at a flow rate of 0.25 mL/min was used in the screening test to search for chromatographic peaks with the exact molecular mass of the possible neonicotinoid metabolites (Table S3). The mobile phases were 10 mM ammonium formate in water (A) and 10 mM ammonium formate in MeOH (B). The gradient elution of mobile phase B was set as follows: 2% (0–1 min), 100% (1–30 min), continued 100% (30–39 min), and a 4 min post-run at 2%. An injection volume was 5 μL and the column temperature was maintained at 45 °C. The expected formulas of potential metabolites of the four neonicotinoids were derived from previous publications on neonicotinoid metabolites in environment samples [29, 30] and in animals.
Several neonicotinoid metabolites were formed in our current in vitro biotransformation assays (Table 1).

The test system of data set [7] is nicotinic acetylcholine receptors. To be noted: cited from earlier work.
Data set [8] concerns fish leukocytes. Further details: method as in PMID 38594566. The conditions noted are these: compared with parent substances; cited from earlier work.
Setting [9] is: clothianidin to clothianidin-urea.
[10] abbreviates: clothianidin to dm-clothianidin.
[11] abbreviates: clothianidin to dn-clothianidin.
Setting [12] is: imidacloprid to 4OH-imidacloprid.
Where [13] appears, read: imidacloprid to 5OH-imidacloprid.
The mark [14] stands for this setting: imidacloprid to dn-imidacloprid.
Setting [15] is: imidacloprid to imidacloprid-olefin.

In the case of `C/C(=N\C#N)N(C)Cc1ccc(Cl)nc1` [Acetamiprid], the Vmax in data set [1] (acetamiprid to dm-acetamiprid) worked out at 0.3 ± 0.1 pmol/min/mg protein; in data set [2] (acetamiprid to dm-acetamiprid) it was 1.2 ± 0.0 pmol/min/mg protein; in data set [3] (acetamiprid to dm-acetamiprid), 1.3 ± 0.2 pmol/min/mg protein; in data set [4] (acetamiprid to dm-acetamiprid) it was 0.4 ± 0.0 pmol/min/mg protein; in data set [5] (acetamiprid to dm-acetamiprid) it was 0.1 ± 0.0 pmol/min/mg protein. In data set [6] (substrate acetamiprid 800 µM), the “Species in which metabolite N-[(6-chloro-3-pyridyl) methyl]-N-methyl acetamidine was identified” value is “Duck, Goose, Quail, Rat”. In addition, the “Species in which metabolite N-desmethyl-acetamiprid was identified” value in data set [6] (substrate acetamiprid 800 µM) is listed as “Chicken, Duck, Goose, Quail, Rat”. For the same compound, the “Species in which metabolite N-methyl(6-chloro-3-pyridyl) methylamine was identified” value in data set [6] (substrate acetamiprid 800 µM) was “Chicken, Duck, Goose, Quail, Rat”.

Take `CN/C(=N\[N+](=O)[O-])NCc1cnc(Cl)s1` [Clothianidin]: the “Affinity to nicotinic acetylcholine receptors” value in data set [7] is reported as “high affinity to nicotinic acetylcholine receptors”. The Vmax in data set [2] (setting [9]) turned out to be 0.008 ± 0.001 pmol/min/mg protein; in data set [2] (setting [10]), 4.4 ± 1.2 pmol/min/mg protein; in data set [2] (setting [11]) it was 0.1 ± 0.0 pmol/min/mg protein; in data set [4] (setting [9]), 0.005 ± 0.001 pmol/min/mg protein; in data set [4] (setting [10]), 2.9 ± 1.3 pmol/min/mg protein; in data set [4] (setting [11]), 0.3 ± 0.1 pmol/min/mg protein. Besides, the Vmax in data set [5] (setting [9]) is reported as 0.012 ± 0.002 pmol/min/mg protein; in data set [5] (setting [11]), 0.2 ± 0.0 pmol/min/mg protein. For the same compound, the “Species in which metabolite clothianidin-urea was identified” value in data set [6] (substrate clothianidin 800 µM, goose and quail not analyzed) was “Chicken, Duck, Rat”.

`O=[N+]([O-])NC1=NCCN1Cc1ccc(Cl)nc1` [Imidacloprid]: the Vmax in data set [2] (setting [12]) was 0.5 ± 0.0 pmol/min/mg protein; in data set [2] (setting [13]), 0.5 ± 0.0 pmol/min/mg protein; in data set [2] (setting [14]), 1.0 ± 0.7 pmol/min/mg protein; in data set [2] (setting [15]), 0.2 ± 0.0 pmol/min/mg protein; in data set [4] (setting [12]), 0.1 ± 0.0 pmol/min/mg protein; in data set [4] (setting [13]), 0.1 ± 0.0 pmol/min/mg protein. The Vmax in data set [4] (setting [14]) is 0.2 ± 0.0 pmol/min/mg protein; in data set [4] (setting [15]) it was 0.03 ± 0.0 pmol/min/mg protein; in data set [5] (setting [12]), 0.1 ± 0.0 pmol/min/mg protein; in data set [5] (setting [13]), 0.1 ± 0.0 pmol/min/mg protein; in data set [5] (setting [14]), 0.1 ± 0.0 pmol/min/mg protein.

Regarding `CN1COCN(Cc2cnc(Cl)s2)/C1=N\[N+](=O)[O-]` [Thiamethoxam], the Vmax in data set [1] (thiamethoxam to clothianidin) stood at 0.4 ± 0.1 pmol/min/mg protein; in data set [2] (thiamethoxam to clothianidin) it was 1.2 ± 0.0 pmol/min/mg protein; in data set [2] (thiamethoxam to dm-clothianidin), 0.01 ± 0.00 pmol/min/mg protein; in data set [3] (thiamethoxam to clothianidin) it was 0.2 ± 0.1 pmol/min/mg protein; in data set [4] (thiamethoxam to clothianidin), 0.1 ± 0.0 pmol/min/mg protein; in data set [5] (thiamethoxam to clothianidin), 0.1 ± 0.0 pmol/min/mg protein. Besides, in data set [6] (substrate thiamethoxam 800 µM), the “Species in which metabolite N-desmethyl-thiamethoxam was identified” value is “Chicken, Duck, Goose, Quail, Rat”. Further, the “Species in which metabolite clothianidin was identified” value in data set [6] (substrate thiamethoxam 800 µM) is listed as “Chicken, Duck, Goose, Quail, Rat”. The “Species in which metabolite clothianidin-urea was identified” value in data set [6] (substrate thiamethoxam 800 µM) was “Chicken, Duck, Goose, Quail, Rat”. Further, in data set [6] (substrate thiamethoxam 800 µM), the “Species in which metabolite dm-clothianidin was identified” value is “Chicken”. Moreover, the “Species in which metabolite thiamethoxam-urea was identified” value in data set [6] (substrate thiamethoxam 800 µM) is listed as “Chicken, Duck, Goose, Quail, Rat”.

Regarding `NC1=NCCN1Cc1ccc(Cl)nc1` [dn-imidacloprid, desnitro-imidacloprid], the “Affinity for nicotinic acetylcholine receptors” value in data set [7] (compared with imidacloprid) is reported as “higher affinity for nicotinic acetylcholine receptors than imidacloprid”. The “Cytotoxicity potency on fish leukocytes” value in data set [8] is listed as “higher cytotoxicity potency on fish leukocytes than their parent substances”.

For `NC(=O)N=C1SCCN1Cc1ccc(Cl)nc1` [thiacloprid-amide], the “Cytotoxicity potency on fish leukocytes” value in data set [8] is given as “higher cytotoxicity potency on fish leukocytes than their parent substances”.
